These results are taken from PMC7271538 (Frontiers in Microbiology, 2020).

Counter-ions that a name gives are not always drawn. Like-named read-outs stand apart in the source and are kept apart here.

For the experiment, the target named is T1, prolyl oligopeptidase (rPOPLi) (Leishmania infantum, UniProt A4ICB5).
T1 construct: gene LINJ_36_7060; full-length, recombinant from E. coli (pET-15b)
Description: fluorogenic assay, single concentration […]. It is filed as biochemical.

T1 sequence (A4ICB5 entry or part of it): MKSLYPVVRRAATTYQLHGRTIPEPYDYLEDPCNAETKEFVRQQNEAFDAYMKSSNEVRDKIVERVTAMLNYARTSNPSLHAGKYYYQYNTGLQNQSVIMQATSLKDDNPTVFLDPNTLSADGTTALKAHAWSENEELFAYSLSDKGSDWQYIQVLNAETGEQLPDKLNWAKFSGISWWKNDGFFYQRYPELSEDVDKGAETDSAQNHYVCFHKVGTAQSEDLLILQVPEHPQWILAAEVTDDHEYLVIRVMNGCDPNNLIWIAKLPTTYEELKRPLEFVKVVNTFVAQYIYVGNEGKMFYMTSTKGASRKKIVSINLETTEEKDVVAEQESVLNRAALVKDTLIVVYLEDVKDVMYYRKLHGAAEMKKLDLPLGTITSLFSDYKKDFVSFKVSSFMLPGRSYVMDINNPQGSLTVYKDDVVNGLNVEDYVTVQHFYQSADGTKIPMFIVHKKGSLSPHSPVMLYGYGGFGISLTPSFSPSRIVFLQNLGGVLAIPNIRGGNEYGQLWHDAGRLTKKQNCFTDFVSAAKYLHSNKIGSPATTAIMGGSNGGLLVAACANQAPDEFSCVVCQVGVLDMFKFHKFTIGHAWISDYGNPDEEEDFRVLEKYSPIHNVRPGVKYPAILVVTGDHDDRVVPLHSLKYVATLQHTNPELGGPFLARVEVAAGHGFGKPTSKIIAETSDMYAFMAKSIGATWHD

Compound `Cc1ccc(S(=O)(=O)N[C@@H](CCCCN)C(=O)CCl)cc1` [TLCK, N-α-Tosyl-L-lysine chloromethyl ketone hydrochloride] returned an inhibition at 100 µM of 96.8%.
As for `Cc1ccc(S(=O)(=O)N[C@@H](Cc2ccccc2)C(=O)CCl)cc1` [TPCK, N-p-Tosyl-L-phenylalanine chloromethyl ketone], under “read-out: Inhibition (%)”, the inhibition at 100 µM came out at 92.3%.

In general, inhibition refers to the share of the control response that was lost under treatment.
